# Laboratory results taken from US20160208016A1, “Anti-ADAM12 antibodies for the treatment of cancer” (UNIVERSITY OF COPENHAGEN, priority 2013, published 2016).
# Tests used:
# MCF7-A12Δcyt+dox cells = test: Type I collagen-induced apoptosis in 3-D collagen cultures, MCF7-A12Δcyt+dox; format: cell-based, human; conditions: 10 μg/ml 8F8 or 10 μM GM6001 every second day
# Method: (§1) (A) MCF7, MCF7-A12Δcyt, and MCF7-A12Δcyt+dox cell lines were embedded in 3-D collagen and the mean percentage of apoptotic bodies (±s.d.) was determined from >500 cells per experiment. (B) Western blot analysis of ADAM12, MMP-14, BIK, and BIM from cells recovered from 3-D collagen. The bar graph depicts levels of BIK and BIM; determined by quantification of the band intensities (using ImageJ software) and normalized to actin. The MCF7 level was set to 1. (C,D) Mean percentage of apoptotic bodies (±s.d.) from >500 cells of 3-D collagen cultures of MCF7, MCF7-A12Δcyt, and MCF7-A12Δcyt+dox (C) and MDA-MB-231. (D) Cells treated every second day with control mouse IgG, 10 μg/ml 8F8, or 10 μM GM6001. (E) Western blot of cells recovered from 3-D cultures of MDA-MB-231 cells analyzed for MMP-14 after siRNA treatment. […]
# (§2) (A) A representative micrograph of MCF7-A12Δcyt+dox cells extracted from 3-D cultures and stained with DAPI. Apoptosis was evaluated by counting the percentage of the number of cells with chromatin condensation and nuclear fragmentation (arrow=apoptotic bodies). […]
# (§3) Cells were seeded on dishes coated with gelatin (10 μg/ml) coupled to Oregon Green® 488 dye (G-13186) from Molecular Probes (Life Technologies, Naerum, Denmark). […] For each experiment more than 1000 cells were counted and same type of experiment was repeated independently at least three times. […]
# MCF7-A12Δcyt cells = test: Type I collagen-induced apoptosis in 3-D collagen cultures, MCF7-A12Δcyt; format: cell-based, human; conditions: 10 μM GM6001 every second day
# Method: as §1, §2, §3
# [1] = system: 293-VnR cells transfected with ADAM12Δcyt; test: In situ solid-phase gelatinase assay, 293-VnR cells transfected with ADAM12Δcyt; format: cell-based, human; conditions: 10 μM overnight vs vehicle only
# Method: Data are expressed as the mean gelatin degradation (±s.d.) relative to the mean ADAM12Δcyt degradation value (set at 100%). (B) In situ solid-phase gelatinase assay of 293-VnR cells transfected with ADAM12Δcyt or control vector and treated with GM6001 (10 μM), TAPI-2 (10 μM), or vehicle only (control) overnight. Cells were stained for ADAM12 and for the nucleus (DAPI). The mean number of gelatin-degrading ADAM12-positive cells (±s.d.) is presented as a percentage of the total number of ADAM12-positive cells. (C) In situ solid-phase gelatinase assay of 293-VnR cells cotransfected with ADAM12Δcyt and control or MMP-14 siRNA. Mean data (±s.d.) are expressed relative to the mean siRNA control degradation value (set at 100%). Inset, Western blots of total cell lysates analyzed for MMP-14. […] Gelatin degradation was quantified by measuring the degraded area in μm^2 and correlated to the number of cells. […]
# (A) In situ solid-phase gelatinase assay of HEK293 cells transfected with ADAM12Δcyt and immunostained for ADAM12, and DAPI staining. […] Precipitates and input samples were analysed by Western blotting with indicated antibodies. […] (E) Mean percentage cell-surface staining of αVβ3 integrin (LM609 antibody staining) for MCF7, MCF7-A12Δcyt, MCF7-A12Δcyt+dox, and MDA-MB-231 cell lines analyzed by FACS. […]
# MDA-MB-231 cells = test: Apoptosis in 3-D collagen cultures, MDA-MB-231; format: cell-based, human; conditions: 10 μg/ml 8F8 or 10 μM GM6001 every second day, compared with control cells
# Method: as §1, §2, §3
# wild-type MCF7 cells = test: Type I collagen-induced apoptosis in 3-D collagen cultures, wild-type MCF7; format: cell-based, human; conditions: 10 μg/ml 8F8 or 10 μM GM6001 every second day
# Method: as §1, §2, §3
# αVβ3 integrin = αVβ3 integrin (UniProt P06756); test: cell-based or functional assay
# UniProt P06756, sequence (P06756 31-1048, chain 1 of 2): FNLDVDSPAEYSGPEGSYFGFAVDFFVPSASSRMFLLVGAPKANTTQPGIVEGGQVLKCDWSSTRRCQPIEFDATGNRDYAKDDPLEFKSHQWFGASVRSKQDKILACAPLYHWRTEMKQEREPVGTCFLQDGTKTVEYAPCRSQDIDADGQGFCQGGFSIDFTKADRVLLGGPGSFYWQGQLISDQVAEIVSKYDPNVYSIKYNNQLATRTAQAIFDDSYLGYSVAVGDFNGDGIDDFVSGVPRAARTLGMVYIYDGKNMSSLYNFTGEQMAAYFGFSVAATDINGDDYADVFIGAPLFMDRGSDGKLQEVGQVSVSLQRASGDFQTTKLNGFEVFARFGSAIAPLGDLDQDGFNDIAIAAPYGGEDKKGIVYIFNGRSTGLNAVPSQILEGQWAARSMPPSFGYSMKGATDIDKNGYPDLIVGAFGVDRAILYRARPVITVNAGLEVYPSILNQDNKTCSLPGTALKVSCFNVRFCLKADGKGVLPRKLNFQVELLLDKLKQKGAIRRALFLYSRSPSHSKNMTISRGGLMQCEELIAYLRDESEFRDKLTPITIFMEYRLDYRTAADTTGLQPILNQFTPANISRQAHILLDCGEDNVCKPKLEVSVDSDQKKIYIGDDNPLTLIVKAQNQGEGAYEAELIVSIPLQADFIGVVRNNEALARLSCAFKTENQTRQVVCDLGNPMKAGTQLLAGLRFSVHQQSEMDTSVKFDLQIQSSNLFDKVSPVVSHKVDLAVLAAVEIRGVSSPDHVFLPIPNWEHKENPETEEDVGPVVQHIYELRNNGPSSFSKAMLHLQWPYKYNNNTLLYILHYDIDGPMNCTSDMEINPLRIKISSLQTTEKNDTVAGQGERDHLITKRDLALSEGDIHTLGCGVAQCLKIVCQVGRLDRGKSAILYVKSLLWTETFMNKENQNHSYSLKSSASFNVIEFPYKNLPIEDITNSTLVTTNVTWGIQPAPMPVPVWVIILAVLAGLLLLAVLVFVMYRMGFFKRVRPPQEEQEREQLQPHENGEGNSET
# UniProt P06756, sequence (P05106 27-788, chain 2 of 2, further chain): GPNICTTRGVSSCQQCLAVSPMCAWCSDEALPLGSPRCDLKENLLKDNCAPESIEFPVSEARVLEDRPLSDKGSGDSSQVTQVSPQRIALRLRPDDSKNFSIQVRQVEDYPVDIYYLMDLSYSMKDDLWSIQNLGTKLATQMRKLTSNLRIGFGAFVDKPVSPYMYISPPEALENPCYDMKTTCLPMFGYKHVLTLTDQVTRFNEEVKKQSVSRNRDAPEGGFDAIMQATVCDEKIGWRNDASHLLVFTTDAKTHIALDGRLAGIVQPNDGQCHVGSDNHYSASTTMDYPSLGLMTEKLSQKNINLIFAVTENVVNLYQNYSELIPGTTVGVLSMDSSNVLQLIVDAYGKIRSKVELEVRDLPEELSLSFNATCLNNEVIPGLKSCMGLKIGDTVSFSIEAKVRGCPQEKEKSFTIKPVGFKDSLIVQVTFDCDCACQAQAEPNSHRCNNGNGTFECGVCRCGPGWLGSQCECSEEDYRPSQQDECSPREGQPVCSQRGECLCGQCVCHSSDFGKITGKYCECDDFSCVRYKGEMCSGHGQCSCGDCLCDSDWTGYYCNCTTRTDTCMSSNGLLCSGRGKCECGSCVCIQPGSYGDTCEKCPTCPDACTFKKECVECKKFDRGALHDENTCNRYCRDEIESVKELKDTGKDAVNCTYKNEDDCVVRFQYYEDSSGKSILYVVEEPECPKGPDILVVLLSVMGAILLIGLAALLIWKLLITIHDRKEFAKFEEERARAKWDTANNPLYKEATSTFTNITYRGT
reduction of gelatin degradation in MCF7-A12Δcyt cell cultures (αVβ3 integrin) [%],Compound,"effect on apoptosis (apoptotic bodies, ApopTag) (MCF7-A12Δcyt+dox cells)",fraction of apoptotic bodies (MCF7-A12Δcyt cells),gelatin degradation [1],levels of apoptotic bodies (MDA-MB-231 cells),"effect on apoptosis (apoptotic bodies, ApopTag) (wild-type MCF7 cells)"
,CNC(=O)[C@H](Cc1c[nH]c2ccccc12)NC(=O)[C@@H](CC(=O)NO)CC(C)C [GM6001],no effects,significantly increased,significant reduction,significantly increased,no effects
,CC(C)C[C@H](CC(=O)NO)C(=O)N[C@H](C(=O)N[C@@H](C)C(=O)NCCN)C(C)(C)C [TAPI-2],,,significant reduction,,
80,mouse monoclonal antibody LM609 against αVβ3 integrin (Chemicon/Millipore),,,,,
